# Key:
# Assay type in all cases: in vivo
# [1] = tested on: wheat (Triticum aestivum); experiment: Test A postemergence, wheat; details: 0 to 100 scale
# In short: (§1)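 Ratings reflect visual comparison with untreated controls roughly 10 d after greenhouse application, 0 meaning no effect and 100 complete control. Treatment was by directed soil spray at planting or by spray onto one- to two-leaf plants in loam/sand pots.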
# [2] = tested on: barnyardgrass (Echinochloa crus-galli); experiment: Test A postemergence, barnyardgrass; details: 0 to 100 scale
# In short: as §1
# [3] = tested on: pigweed (Amaranthus retroflexus); experiment: Test A postemergence, pigweed; details: 0 to 100 scale
# In short: as §1
# kochia (Kochia scoparia) [4] = experiment: Test A preemergence, kochia; details: 0 to 100 scale; for Kochia plant response rating: 0 is no effect, 100 is complete control
# In short: as §1
# [5] = tested on: ryegrass, Italian (Lolium multiflorum); experiment: Test A postemergence, Italian ryegrass; details: 0 to 100 scale
# In short: as §1
# rice (Oryza sativa) = experiment: Test B flooded paddy test, rice; details: Flood, 250 g ai/ha, applied to paddy water, 2-leaf stage, visual evaluation after 13 to 15 d
# In short: (§2)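 Growth to two leaves preceded treatment. Flooding to 3 cm above soil surface, then water-applied compound; depth kept constant. Scored visually relative to controls after 13–15 d greenhouse; 100 means full control.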
# [6] = tested on: sedge, umbrella (small-flower umbrella sedge, Cyperus difformis); experiment: Test B flooded paddy test, umbrella sedge; details: Flood, 250 g ai/ha, applied to paddy water, 2-leaf stage, visual evaluation after 13 to 15 d
# In short: as §2
# [7] = tested on: pigweed (Amaranthus retroflexus); experiment: Test A preemergence, pigweed; details: 0 to 100 scale; for Pigweed plant response rating: 0 is no effect, 100 is complete control
# In short: as §1
# [8] = tested on: ducksalad (Heteranthera limosa); experiment: Test B flooded paddy test, ducksalad; details: Flood, 250 g ai/ha, applied to paddy water, 2-leaf stage, visual evaluation after 13 to 15 d
# In short: as §2
# [9] = tested on: blackgrass (Alopecurus myosuroides); experiment: Test A postemergence, blackgrass; details: 0 to 100 scale
# In short: as §1
# [10] = tested on: ragweed (common ragweed, Ambrosia elatior); experiment: Test A preemergence, ragweed; details: 0 to 100 scale; for Ragweed plant response rating: 0 is no effect, 100 is complete control
# In short: as §1
# [11] = tested on: ragweed (common ragweed, Ambrosia elatior); experiment: Test A postemergence, ragweed; details: 0 to 100 scale
# In short: as §1
# [12] = tested on: barnyardgrass (Echinochloa crus-galli); experiment: Test A preemergence, barnyardgrass; details: 0 to 100 scale; for Barnyardgrass plant response rating: 0 is no effect, 100 is complete control
# In short: as §1
# kochia (Kochia scoparia) [13] = experiment: Test A postemergence, kochia; details: 0 to 100 scale
# In short: as §1
# [14] = tested on: barnyardgrass (Echinochloa crus-galli); experiment: Test B flooded paddy test, barnyardgrass; details: Flood, 250 g ai/ha, applied to paddy water, 2-leaf stage, visual evaluation after 13 to 15 d
# In short: as §2
# [15] = tested on: foxtail, giant (Setaria faberii); experiment: Test A postemergence, giant foxtail; details: 0 to 100 scale
# In short: as §1
# [16] = tested on: galium (catchweed bedstraw, Galium aparine); experiment: Test A postemergence, galium; details: 0 to 100 scale
# In short: as §1
# [17] = tested on: ryegrass, Italian (Lolium multiflorum); experiment: Test A preemergence, Italian ryegrass; details: 0 to 100 scale; for Ryegrass, Italian plant response rating: 0 is no effect, 100 is complete control
# In short: as §1
# [18] = tested on: foxtail, giant (Setaria faberii); experiment: Test A preemergence, giant foxtail; details: 0 to 100 scale; for Foxtail, Giant plant response rating: 0 is no effect, 100 is complete control
# In short: as §1
# corn (Zea mays) = experiment: Test A postemergence, corn; details: 0 to 100 scale
# In short: as §1
# [19] = 125 g ai/ha, 0 no effect, 100 complete control
# [20] = 500 g ai/ha, 0 no effect, 100 complete control
compound,measurement,setting,value
Nc1nc(N[C@@H](c2cc3ccccc3s2)C2CC2)ncc1C(F)(F)F [Compound 84],"Plant response rating, Wheat",[1]; [19],0
same,"Plant response rating, Wheat",[1]; [20],0
same,"Plant response rating, Barnyardgrass",[2]; [19],70
same,"Plant response rating, Barnyardgrass",[2]; [20],100
same,"Plant response rating, Pigweed",[3]; [19],100
same,"Plant response rating, Pigweed",[3]; [20],100
same,Kochia plant response rating,kochia (Kochia scoparia) [4]; 125 g ai/ha,90
same,Kochia plant response rating,kochia (Kochia scoparia) [4]; 500 g ai/ha,90
same,"Plant response rating, Ryegrass, Italian",[5]; [19],0
same,"Plant response rating, Ryegrass, Italian",[5]; [20],70
same,"Plant response rating, Rice (0 to 100 scale, 0 is no effect, 100 is complete control)",rice (Oryza sativa),20
same,"Plant response rating, Sedge, Umbrella (0 to 100 scale, 0 is no effect, 100 is complete control)",[6],90
same,Pigweed plant response rating,[7]; 125 g ai/ha,100
same,Pigweed plant response rating,[7]; 500 g ai/ha,100
same,"Plant response rating, Ducksalad (0 to 100 scale, 0 is no effect, 100 is complete control)",[8],65
same,"Plant response rating, Blackgrass",[9]; [19],0
same,"Plant response rating, Blackgrass",[9]; [20],0
same,Ragweed plant response rating,[10]; 125 g ai/ha,100
same,Ragweed plant response rating,[10]; 500 g ai/ha,100
same,"Plant response rating, Ragweed",[11]; [19],40
same,"Plant response rating, Ragweed",[11]; [20],90
same,Barnyardgrass plant response rating,[12]; 125 g ai/ha,90
same,Barnyardgrass plant response rating,[12]; 500 g ai/ha,90
same,"Plant response rating, Kochia",kochia (Kochia scoparia) [13]; [19],80
same,"Plant response rating, Kochia",kochia (Kochia scoparia) [13]; [20],90
same,"Plant response rating, Barnyardgrass (0 to 100 scale, 0 is no effect, 100 is complete control)",[14],85
same,"Plant response rating, Foxtail, Giant",[15]; [19],50
same,"Plant response rating, Foxtail, Giant",[15]; [20],90
same,"Plant response rating, Galium",[16]; [19],60
same,"Plant response rating, Galium",[16]; [20],80
same,"Ryegrass, Italian plant response rating",[17]; 125 g ai/ha,70
same,"Ryegrass, Italian plant response rating",[17]; 500 g ai/ha,90
same,"Foxtail, Giant plant response rating",[18]; 125 g ai/ha,90
same,"Foxtail, Giant plant response rating",[18]; 500 g ai/ha,100
same,"Plant response rating, Corn",corn (Zea mays); [19],0
same,"Plant response rating, Corn",corn (Zea mays); [20],0
CCc1ccc2oc([C@@H](C)Nc3ncc(C(F)(F)F)c(N)n3)cc2c1 [Compound 17],"Plant response rating, Wheat",[1]; 125 g ai/ha,0
same,"Plant response rating, Wheat",[1]; 500 g ai/ha,0
same,"Plant response rating, Barnyardgrass",[2]; 125 g ai/ha,0
same,"Plant response rating, Barnyardgrass",[2]; 500 g ai/ha,0
same,"Plant response rating, Pigweed",[3]; 125 g ai/ha,0
same,"Plant response rating, Pigweed",[3]; 500 g ai/ha,20
same,"Plant response rating, Kochia",kochia (Kochia scoparia) [4]; 125 g ai/ha,0
same,"Plant response rating, Kochia",kochia (Kochia scoparia) [4]; 500 g ai/ha,0
same,"Plant response rating, Ryegrass, Italian",[5]; 125 g ai/ha,0
same,"Plant response rating, Ryegrass, Italian",[5]; 500 g ai/ha,0
same,"Plant response rating, Rice (0 to 100 scale, 0 is no effect, 100 is complete control)",rice (Oryza sativa),0
same,"Plant response rating, Sedge, Umbrella (0 to 100 scale, 0 is no effect, 100 is complete control)",[6],0
same,"Plant response rating, Pigweed",[7]; 125 g ai/ha,0
same,"Plant response rating, Pigweed",[7]; 500 g ai/ha,0
same,"Plant response rating, Ducksalad (0 to 100 scale, 0 is no effect, 100 is complete control)",[8],0
same,"Plant response rating, Blackgrass",[9]; 125 g ai/ha,0
same,"Plant response rating, Blackgrass",[9]; 500 g ai/ha,0
same,"Plant response rating, Ragweed",[10]; 125 g ai/ha,0
same,"Plant response rating, Ragweed",[10]; 500 g ai/ha,50
same,"Plant response rating, Ragweed",[11]; 125 g ai/ha,0
same,"Plant response rating, Ragweed",[11]; 500 g ai/ha,20
same,"Plant response rating, Barnyardgrass",[12]; 125 g ai/ha,0
same,"Plant response rating, Barnyardgrass",[12]; 500 g ai/ha,0
same,"Plant response rating, Kochia",kochia (Kochia scoparia) [13]; 125 g ai/ha,0
same,"Plant response rating, Kochia",kochia (Kochia scoparia) [13]; 500 g ai/ha,0
same,"Plant response rating, Barnyardgrass (0 to 100 scale, 0 is no effect, 100 is complete control)",[14],0
same,"Plant response rating, Foxtail, Giant",[15]; 125 g ai/ha,20
same,"Plant response rating, Foxtail, Giant",[15]; 500 g ai/ha,20
same,"Plant response rating, Galium",[16]; 125 g ai/ha,0
same,"Plant response rating, Galium",[16]; 500 g ai/ha,0
same,"Plant response rating, Ryegrass, Italian",[17]; 125 g ai/ha,0
same,"Plant response rating, Ryegrass, Italian",[17]; 500 g ai/ha,20
same,"Plant response rating, Foxtail, Giant",[18]; 125 g ai/ha,0
same,"Plant response rating, Foxtail, Giant",[18]; 500 g ai/ha,20
same,"Plant response rating, Corn",corn (Zea mays); 125 g ai/ha,0
same,"Plant response rating, Corn",corn (Zea mays); 500 g ai/ha,0

# Reference: patent publication US20220119354A1, “DIAMINO-SUBSTITUTED PYRIDINES AND PYRIMIDINES AS HERBICIDES” (FMC Corporation, priority 2019, published 2022)
